{"source": "patent US7186749B2", "about": "“Pyrrolo-naphthyl acids and methods for using them” (Wyeth, priority 2004, dated 2007)", "key": {"[1]": {"target": "T1, recombinant human plasminogen activator inhibitor-1 (PAI-1) (Homo sapiens, UniProt P05121)", "T1 construct": "purchased Molecular Innovations, Royal Oak, Mich", "T1 sequence (P05121 24-402)": "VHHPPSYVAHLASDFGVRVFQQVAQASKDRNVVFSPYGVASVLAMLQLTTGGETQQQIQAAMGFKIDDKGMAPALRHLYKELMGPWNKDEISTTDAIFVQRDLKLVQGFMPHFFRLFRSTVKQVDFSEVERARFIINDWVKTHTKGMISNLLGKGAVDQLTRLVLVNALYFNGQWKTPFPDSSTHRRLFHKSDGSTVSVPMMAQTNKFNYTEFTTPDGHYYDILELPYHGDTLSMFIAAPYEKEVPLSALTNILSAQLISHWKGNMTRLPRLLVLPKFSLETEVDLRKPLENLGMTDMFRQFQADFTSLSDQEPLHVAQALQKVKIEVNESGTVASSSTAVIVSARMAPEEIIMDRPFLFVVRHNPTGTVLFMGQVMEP", "test": "Primary screen for PAI-1 inhibition (chromogenic tPA activity, Spectrozyme-tPA)", "assay_type": "biochemical", "settings": "140 nM PAI-1, 70 nM tPA, pH 6.6; for inhibition at 10 µM: test compound 10 μM; for inhibition at 25 µM: test compound 25 μM", "protocol": "Test compounds are dissolved in DMSO at a final concentration of 10 mM, then diluted 100× in physiologic buffer. The inhibitory assay is initiated by the addition of the test compound (1–100 μM final concentration, maximun DMSO concentration of 0.2%) in a pH 6.6 buffer containing 140 nM recombinant human plasminogen activator inhibitor-1 (PAI-1; Molecular Innovations, Royal Oak, Mich.). Following a 1 hour incubation at room temperature, 70 nM of recombinant human tissue plasminogen activator (tPA) is added, and the combination of the test compound, PAI-1 and tPA is incubated for an additional 30 minutes. Following the second incubation, Spectrozyme-tPA (American Diagnostica, Greenwich, Conn.), a chromogenic substrate for tPA, is added and absorbance read at 405 nm at 0 and 60 minutes. Relative PAI-1 inhibition is equal to the residual tPA activity in the presence of the test compound and PAI-1. Control treatments include the complete inhibition of tPA by PAI-1 at the molar ratio employed (2:1), and the absence of any effect of the test compound on tPA alone."}, "human PAI-1": {"target": "human PAI-1 (Homo sapiens, UniProt P05121)", "sequence (P05121 24-402)": "as above", "test": "Antibody assay for determining IC50 of inhibition of PAI-1 (active PAI-1 bound to tPA-coated plate)", "assay_type": "binding", "settings": "pH 7.5, human PAI-1 50 ng/ml", "protocol": "This assay is based upon the non-SDS dissociable interaction between tPA and active PAI-1. Assay plates are initially coated with human tPA (10 μg/ml). Test compounds of the present invention are dissolved in DMSO at 10 mM, then diluted with physiologic buffer (pH 7.5) to a final concentration of 1–50 μM. Test compounds are incubated with human PAI-1 (50 ng/ml) for 15 minutes at room temperature. The tPA-coated plate is washed with a solution of 0.05% Tween 20 and 0.1% BSA, then the plate is blocked with a solution of 3% BSA. An aliquot of the pyrrolo-naphthyl/PAI-1 solution is then added to the tPA-coated plate, incubated at room temperature for 1 hour, and washed. Active PAI-1 bound to the plate is assessed by adding an aliquot of a 1:1000 dilution of the 33B8 monoclonal antibody against human PAI-1, and incubating the plate at room temperature for 1 hour (Molecular Innovations, Royal Oak, Mich.). The plate is again washed, and a solution of goat anti-mouse IgG-alkaline phosphatase conjugate is added at a 1:50,000 dilution in goat serum. The plate is incubated 30 minutes at room temperature, washed, and a solution of alkaline phosphatase substrate is added. The plate is incubated 45 minutes at room temperature, and color development is determined at OD405 nm. The quantitation of active PAI-1 bound to tPA at varying concentrations of the test compound is used to determine the IC50. Results are analyzed using a logarithmic best-fit equation. The assay sensitivity is 5 ng/ml of human PAI-1 as determined from a standard curve ranging from 0–100 ng/ml."}}, "data": [{"smiles": "O=C(O)C(Cc1ccccc1)Oc1ccc2cc(-c3ccc(-c4ccccc4)[nH]3)ccc2c1", "note": "(stereo not drawn) [Example 1, 3-phenyl-2-{[6-(5-phenyl-1H-pyrrol-2-yl)-2-naphthyl]oxy}propanoic acid]", "values": [{"measurement": "inhibition at 10 µM", "setting": "[1]", "value": 12, "unit": "%"}, {"measurement": "inhibition at 25 µM", "setting": "[1]", "value": 78, "unit": "%"}, {"measurement": "IC50", "setting": "human PAI-1", "value": 44.4, "unit": "µM"}, {"measurement": "melting point", "value": "176 to 178", "unit": "°C"}]}, {"smiles": "O=C(O)C(Cc1ccccc1)Oc1ccc2cc(-c3ccc(-c4ccccc4)n3Cc3ccccc3)ccc2c1", "note": "(stereo not drawn) [Example 2, 2-{[6-(1-benzyl-5-phenyl-1H-pyrrol-2-yl)-2-naphthyl]oxy}-3-phenylpropanoic acid]", "values": [{"measurement": "inhibition at 10 µM", "setting": "[1]", "value": 37, "unit": "%"}, {"measurement": "inhibition at 25 µM", "setting": "[1]", "value": 66, "unit": "%"}, {"measurement": "IC50", "setting": "human PAI-1", "value": 16.1, "unit": "µM"}, {"measurement": "melting point", "value": "70 to 80", "unit": "°C"}]}, {"smiles": "c1ccc(-c2ccc(-c3ccc4cc(OCc5nnn[nH]5)ccc4c3)[nH]2)cc1", "note": "[Example 3, 5-({[6-(5-phenyl-1H-pyrrol-2-yl)-2-naphthyl]oxy}methyl)-1H-tetraazole]", "values": [{"measurement": "inhibition at 10 µM", "setting": "[1]", "value": 15, "unit": "%"}, {"measurement": "inhibition at 25 µM", "setting": "[1]", "value": 52, "unit": "%"}, {"measurement": "IC50", "setting": "human PAI-1", "value": 33, "unit": "µM"}, {"measurement": "melting point", "value": "237 to 240 °C (dec.)"}]}, {"smiles": "c1ccc(Cn2c(-c3ccccc3)ccc2-c2ccc3cc(OCc4nnn[nH]4)ccc3c2)cc1", "note": "[Example 4, 5-({[6-(1-benzyl-5-phenyl-1H-pyrrol-2-yl)-2-naphthyl]oxy}methyl)-1H-tetraazole]", "values": [{"measurement": "inhibition at 10 µM", "setting": "[1]", "value": 11, "unit": "%"}, {"measurement": "inhibition at 25 µM", "setting": "[1]", "value": 67, "unit": "%"}, {"measurement": "melting point", "value": "190 to 200 °C (dec.)"}]}, {"smiles": "Cn1c(-c2ccccc2)ccc1-c1ccc2cc(OCc3nnn[nH]3)ccc2c1", "note": "[Example 5, 5-({[6-(1-methyl-5-phenyl-1H-pyrrol-2-yl)-2-naphthyl]oxy}methyl)-1H-tetraazole]", "values": [{"measurement": "inhibition at 10 µM", "setting": "[1]", "value": 15, "unit": "%"}, {"measurement": "inhibition at 25 µM", "setting": "[1]", "value": 32, "unit": "%"}, {"measurement": "melting point", "value": "231 to 233 °C (dec.)"}]}, {"smiles": "O=C(O)COc1ccc2cc(-c3ccc(-c4ccccc4)n3Cc3ccccc3)ccc2c1", "note": "[Example 6, {[6-(1-benzyl-5-phenyl-1H-pyrrol-2-yl)-2-naphthyl]oxy}acetic acid]", "values": [{"measurement": "inhibition at 10 µM", "setting": "[1]", "value": 14, "unit": "%"}, {"measurement": "inhibition at 25 µM", "setting": "[1]", "value": 74, "unit": "%"}, {"measurement": "melting point", "value": "171 to 172", "unit": "°C"}]}, {"smiles": "Cn1c(-c2ccccc2)ccc1-c1ccc2cc(OC(Cc3ccccc3)C(=O)O)ccc2c1", "note": "(stereo not drawn) [Example 7, 2-{[6-(1-methyl-5-phenyl-1H-pyrrol-2-yl)-2-naphthyl]oxy}-3-phenylpropanoic acid]", "values": [{"measurement": "inhibition at 10 µM", "setting": "[1]", "value": 30, "unit": "%"}, {"measurement": "inhibition at 25 µM", "setting": "[1]", "value": 95, "unit": "%"}, {"measurement": "melting point", "value": "171 to 173", "unit": "°C"}]}, {"smiles": "O=C(O)C(Cc1ccccc1)Oc1ccc2cc(-c3ccc(-c4ccccc4)n3Cc3ccc(C(F)(F)F)cc3)ccc2c1", "note": "(stereo not drawn) [Example 8, 3-phenyl-2-[(6-{5-phenyl-1-[4-(trifluoromethyl)benzyl]-1H-pyrrol-2-yl}2-naphthyl)oxy]propanoic acid]", "values": [{"measurement": "inhibition at 10 µM", "setting": "[1]", "value": 43, "unit": "%"}, {"measurement": "inhibition at 25 µM", "setting": "[1]", "value": 62, "unit": "%"}, {"measurement": "melting point", "value": "153 to 155", "unit": "°C"}]}, {"smiles": "FC(F)(F)c1ccc(Cn2c(-c3ccccc3)ccc2-c2ccc3cc(OCc4nnn[nH]4)ccc3c2)cc1", "note": "[Example 9, 5-{[(6-{5-Phenyl-1-[4-(trifluoromethyl)benzyl]-1H-pyrrol-2-yl}-2-naphthyl)oxy]methyl}-1H-tetraazole]", "values": [{"measurement": "inhibition at 10 µM", "setting": "[1]", "value": 31, "unit": "%"}, {"measurement": "inhibition at 25 µM", "setting": "[1]", "value": 49, "unit": "%"}, {"measurement": "melting point", "value": "173 to 175", "unit": "°C"}]}, {"smiles": "O=C(O)COc1ccc2cc(-c3ccc(-c4ccccc4)n3Cc3ccc(C(F)(F)F)cc3)ccc2c1", "note": "[Example 10, [(6-{5-Phenyl-1-[4-(trifluoromethyl)benzyl]-1H-pyrrol-2-yl}-2-naphthyl)oxy]acetic acid]", "values": [{"measurement": "inhibition at 10 µM", "setting": "[1]", "value": 29, "unit": "%"}, {"measurement": "inhibition at 25 µM", "setting": "[1]", "value": 55, "unit": "%"}, {"measurement": "melting point", "value": "154 to 156", "unit": "°C"}]}, {"smiles": "c1ccc(-c2ccc(-c3ccc4cc(OCc5nnn[nH]5)ccc4c3)n2-c2ccccc2)cc1", "note": "[Example 11, 5-({[6-(1,5-diphenyl-1H-pyrrol-2-yl)-2-naphthyl]oxy}methyl)-1H-tetraazole]", "values": [{"measurement": "inhibition at 10 µM", "setting": "[1]", "value": 30, "unit": "%"}, {"measurement": "inhibition at 25 µM", "setting": "[1]", "value": 68, "unit": "%"}, {"measurement": "melting point", "value": "269 to 270 °C (dec.)"}]}, {"smiles": "O=C(O)COc1ccc2cc(-c3ccc(-c4ccccc4)n3-c3ccccc3)ccc2c1", "note": "[Example 12, {[6-(1,5-diphenyl-1H-pyrrol-2-yl)-2-naphthyl]oxy}acetic acid]", "values": [{"measurement": "inhibition at 10 µM", "setting": "[1]", "value": 48, "unit": "%"}, {"measurement": "inhibition at 25 µM", "setting": "[1]", "value": 58, "unit": "%"}, {"measurement": "melting point", "value": "258 to 260 °C (dec.)"}]}, {"smiles": "O=C(O)C(Cc1ccccc1)Oc1ccc2cc(-c3ccc(-c4ccccc4)n3-c3ccccc3)ccc2c1", "note": "(stereo not drawn) [Example 13, 2-{[6-(1,5-diphenyl-1H-pyrrol-2-yl)-2-naphthyl]oxy}-3-phenylpropanoic acid]", "values": [{"measurement": "inhibition at 10 µM", "setting": "[1]", "value": 33, "unit": "%"}, {"measurement": "inhibition at 25 µM", "setting": "[1]", "value": 60, "unit": "%"}, {"measurement": "melting point", "value": "194 to 196 °C (dec.)"}]}, {"smiles": "O=C(O)c1ccc(COc2ccc3cc(-c4ccc(-c5ccccc5)n4Cc4ccc(C(F)(F)F)cc4)ccc3c2)cc1", "note": "[Example 14, 4-{[(6-{5-phenyl-1-[4-(trifluoromethyl)benzyl]-1H-pyrrol-2-yl}-2-naphthyl)oxy]methyl}benzoic acid]", "values": [{"measurement": "inhibition at 10 µM", "setting": "[1]", "value": 23, "unit": "%"}, {"measurement": "inhibition at 25 µM", "setting": "[1]", "value": 31, "unit": "%"}, {"measurement": "melting point", "value": "228 to 229", "unit": "°C"}]}, {"smiles": "O=C(O)c1ccc(COc2ccc3cc(-c4ccc(-c5ccccc5)n4-c4ccccc4)ccc3c2)cc1", "note": "[Example 15, 4-({[6-(1,5-diphenyl-1H-pyrrol-2-yl)-2-naphthyl]oxy}methyl)benzoic acid]", "values": [{"measurement": "inhibition at 10 µM", "setting": "[1]", "value": 30, "unit": "%"}, {"measurement": "inhibition at 25 µM", "setting": "[1]", "value": 68, "unit": "%"}, {"measurement": "melting point", "value": "309 to 310", "unit": "°C"}]}, {"smiles": "O=C(O)c1ccc(COc2ccc3cc(-c4ccc(-c5ccccc5)n4Cc4ccc(C(F)(F)F)cc4)ccc3c2)c(C(=O)O)c1", "note": "[Example 16, 4-{[(6-{5-phenyl-1-[4-(trifluoromethyl)benzyl]-1H-pyrrol-2-yl}-2-naphthyl)oxy]methyl}isophthalic acid]", "values": [{"measurement": "inhibition at 10 µM", "setting": "[1]", "value": 40, "unit": "%"}, {"measurement": "inhibition at 25 µM", "setting": "[1]", "value": 63, "unit": "%"}, {"measurement": "melting point", "value": "250 to 252", "unit": "°C"}]}, {"smiles": "O=C(O)c1ccc(COc2ccc3cc(-c4ccc(-c5ccccc5)[nH]4)ccc3c2)c(C(=O)O)c1", "note": "[Example 17, 4-({[6-(5-phenyl-1H-pyrrol-2-yl)-2-naphthyl]oxy}methyl)isophthalic acid]", "values": [{"measurement": "inhibition at 10 µM", "setting": "[1]", "value": 18, "unit": "%"}, {"measurement": "inhibition at 25 µM", "setting": "[1]", "value": 44, "unit": "%"}, {"measurement": "melting point", "value": "289 to 291", "unit": "°C"}]}]}
